PubChem BioAssay AID248 (DTP/NCI, 2004)
Where “and” joins values, the source holds several entries; their conditions need not be identical. Equal entries are not always repeated. Inconclusive results and toxic doses are left out. Cut-off read from the data, not from the text of the source: active = T/C of 150% or more; inactive = T/C below 125%.

System: L1210 leukemia ip in BDF1 mice, survival T/C
Test: NCI In Vivo Anticancer Drug Screen. Data for tumor model L1210 Leukemia (intraperitoneal) in B6D2F1 (BDF1) mice
Details: endpoint: mean survival time, higher = longer survival
Method in brief: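 Tumor was transplanted into mice, which were then dosed with test compound or vehicle alone. Survival was recorded for each group, and the treated figure was expressed relative to the control figure.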

[1] = dose: 100.0 mg/kg/injection, schedule: Q04DX003 (ip), vehicle: saline
[2] = dose: 200.0 mg/kg/injection, schedule: Q04DX003 (ip), vehicle: saline
[3] = dose: 100.0 mg/kg/injection, schedule: Q04DX002 (ip), vehicle: Klucel (hydroxypropylcellulose) (HPC)
[4] = dose: 200.0 mg/kg/injection, schedule: Q04DX002 (ip), vehicle: Klucel (hydroxypropylcellulose) (HPC)
[5] = dose: 400.0 mg/kg/injection, schedule: Q04DX002 (ip), vehicle: Klucel (hydroxypropylcellulose) (HPC)
[6] = dose: 400.0 mg/kg/injection, schedule: Q04DX003 (ip), vehicle: saline
[7] = dose: 50.0 mg/kg/injection, schedule: Q01DX009 (ip), vehicle: Klucel (hydroxypropylcellulose) (HPC)
[8] = dose: 100.0 mg/kg/injection, schedule: Q01DX009 (ip), vehicle: Klucel (hydroxypropylcellulose) (HPC)
[9] = dose: 200.0 mg/kg/injection, schedule: Q01DX009 (ip), vehicle: Klucel (hydroxypropylcellulose) (HPC)
[10] = dose: 100.0 mg/kg/injection, schedule: Q04DX003 (ip), vehicle: saline with Tween-80
[11] = dose: 200.0 mg/kg/injection, schedule: Q04DX003 (ip), vehicle: saline with Tween-80
[12] = dose: 100.0 mg/kg/injection, schedule: Q04DX003 (ip), vehicle: Klucel (hydroxypropylcellulose) (HPC)
[13] = dose: 200.0 mg/kg/injection, schedule: Q04DX003 (ip), vehicle: Klucel (hydroxypropylcellulose) (HPC)
[14] = dose: 400.0 mg/kg/injection, schedule: Q01DX009 (ip), vehicle: Klucel (hydroxypropylcellulose) (HPC)
[15] = dose: 400.0 mg/kg/injection, schedule: Q04DX003 (ip), vehicle: Klucel (hydroxypropylcellulose) (HPC)
[16] = dose: 100.0 mg/kg/injection, schedule: Q01DX001 (ip), vehicle: saline
[17] = dose: 100.0 mg/kg/injection, schedule: Q04DX002 (ip), vehicle: saline
[18] = dose: 200.0 mg/kg/injection, schedule: Q01DX001 (ip), vehicle: saline
[19] = dose: 200.0 mg/kg/injection, schedule: Q04DX002 (ip), vehicle: saline

Measured: T/C

Nc1ncnc2c1ncn2CCCCl
inactive: dose: 50.0 mg/kg/injection, schedule: Q01DX009 (ip), vehicle: saline 100 % of control | dose: 100.0 mg/kg/injection, schedule: Q01DX009 (ip), vehicle: saline 100 % of control | [1] 90 % of control | dose: 200.0 mg/kg/injection, schedule: Q01DX009 (ip), vehicle: saline 92 % of control | [2] 106 % of control

C/C=C\c1ccc(OCCOC(=O)Nc2c(C)cccc2C)c(OC)c1
inactive: dose: 100.0 mg/kg/injection, schedule: Q01DX009 (ip), vehicle: saline with Tween-80 92 % of control | dose: 200.0 mg/kg/injection, schedule: Q01DX009 (ip), vehicle: saline with Tween-80 89 % of control | dose: 400.0 mg/kg/injection, schedule: Q01DX009 (ip), vehicle: saline with Tween-80 87 % of control

O=C1/C(=C\c2ccc(O)cc2)Oc2cc(O)ccc21
inactive: dose: 100.0 mg/kg/injection, schedule: Q01DX001 (ip), vehicle: saline with Tween-80 98 % of control | dose: 200.0 mg/kg/injection, schedule: Q01DX001 (ip), vehicle: saline with Tween-80 87 % of control | dose: 400.0 mg/kg/injection, schedule: Q01DX001 (ip), vehicle: saline with Tween-80 90 % of control

CN1Cc2ccccc2/C=C\c2ccccc21
inactive: [3] 103 % of control | [4] 106 % of control | [5] 100 % of control

N#CCCc1ccnc2ccccc12
inactive: [1] 100 % of control | [2] 102 % of control | [6] 100 % of control

C1C[S+]2CCN1CC2
inactive: dose: 50.0 mg/kg/injection, schedule: Q01DX001 (ip), vehicle: saline 95 % of control

Cc1cccc(NC(=O)NCC(=O)NNC(=O)Nc2cc([N+](=O)[O-])ccc2C)n1
inactive: [7] 100 % of control | [8] 89 % of control | [9] 88 % of control

CC1(C)SC2C(NC(=O)COc3ccccc3)C(=O)N2C1C(=O)O (centres undefined) (tested in a mixture with another compound)
inactive: [10] 101 % of control | [11] 103 % of control | dose: 400.0 mg/kg/injection, schedule: Q04DX003 (ip), vehicle: saline with Tween-80 97 % of control

CN(C)/C=N/n1cnnc1
inactive: [1] 94 % of control | [2] 98 % of control | [6] 102 % of control

COc1cccc(N=C(N)N=C(N)N)c1
inactive: dose: 75.0 mg/kg/injection, schedule: Q01DX001 (ip), vehicle: saline 101 % of control | dose: 150.0 mg/kg/injection, schedule: Q01DX001 (ip), vehicle: saline 101 % of control | dose: 300.0 mg/kg/injection, schedule: Q01DX001 (ip), vehicle: saline 107 % of control

O=C(Nc1cccc(C(F)(F)F)c1)OCCOc1ccc(Cl)cc1
inactive: [3] 89 % of control | [4] 96 % of control | [5] 101 % of control

CCCCOS(=O)(=O)c1ccc(N)cc1
inactive: [8] 90 % of control | [9] 93 % of control
active: [7] 229 % of control

CC(C)N(C(=S)SC(=S)N(C(C)C)C(C)C)C(C)C
inactive: dose: 50.0 mg/kg/injection, schedule: Q04DX003 (ip), vehicle: Klucel (hydroxypropylcellulose) (HPC) 93 % of control | [12] 90 % of control | [13] 96 % of control

CN(C)S(=O)(=O)c1ccc(CC(O)(c2ccccc2)c2ccccc2)cc1
inactive: dose: 88.8 mg/kg/injection, schedule: Q01DX001 (ip), vehicle: carboxymethylcellulose (CMC) 105 % of control and 91 % of control | dose: 100.0 mg/kg/injection, schedule: Q01DX001 (ip), vehicle: carboxymethylcellulose (CMC) 98 % of control | dose: 133.0 mg/kg/injection, schedule: Q01DX001 (ip), vehicle: carboxymethylcellulose (CMC) 120 % of control and 91 % of control | dose: 200.0 mg/kg/injection, schedule: Q01DX001 (ip), vehicle: carboxymethylcellulose (CMC) 96 % of control and 109 % of control | dose: 300.0 mg/kg/injection, schedule: Q01DX001 (ip), vehicle: carboxymethylcellulose (CMC) 93 % of control and 97 % of control | dose: 400.0 mg/kg/injection, schedule: Q01DX001 (ip), vehicle: carboxymethylcellulose (CMC) 104 % of control

CCC(=O)N1CCOCC1
inactive: [1] 102 % of control | [2] 105 % of control | [6] 98 % of control

CC1CC(C(=O)O)Cc2c1nc1ccccc1c2C(=O)O (centres undefined)
inactive: dose: 100.0 mg/kg/injection, schedule: Q04DX002 (ip), vehicle: saline with Tween-80 100 % of control | dose: 200.0 mg/kg/injection, schedule: Q04DX002 (ip), vehicle: saline with Tween-80 93 % of control | dose: 400.0 mg/kg/injection, schedule: Q04DX002 (ip), vehicle: saline with Tween-80 96 % of control

Cc1cccc(NC(=O)NC(C)C)c1C
inactive: [8] 109 % of control | [12] 102 % of control | [9] 109 % of control | [13] 96 % of control | [14] 102 % of control | [15] 98 % of control

CC(=O)N1CSCC1C(=O)O (centres undefined)
inactive: [12] 89 % of control | [13] 94 % of control | [15] 91 % of control

COc1cc(C=C(C#N)C#N)ccc1O
inactive: dose: 12.5 mg/kg/injection, schedule: Q01DX009 (ip), vehicle: Klucel (hydroxypropylcellulose) (HPC) 103 % of control | dose: 25.0 mg/kg/injection, schedule: Q01DX009 (ip), vehicle: Klucel (hydroxypropylcellulose) (HPC) 97 % of control

CNC(=O)Nc1ccccc1C(=O)OC
inactive: [8] 100 % of control | [12] 97 % of control | [9] 98 % of control | [13] 97 % of control | [14] 98 % of control | [15] 101 % of control

COC(=N)c1nn(C2OC(CO)C(O)C2O)c2ncnc(N)c12 (centres undefined)
active: dose: 200.0 mg/kg/injection, schedule: Q01DX005 (ip), vehicle: saline 153 % of control | dose: 400.0 mg/kg/injection, schedule: Q01DX005 (ip), vehicle: saline 164 % of control
inactive: dose: 100.0 mg/kg/injection, schedule: Q01DX005 (ip), vehicle: saline 115 % of control

CN(C)c1ccccc1C(=O)N/N=C\c1ccc(Cl)cc1
inactive: dose: 100.0 mg/kg/injection, schedule: Q04DX002 (ip), vehicle: gum acacia 96 % of control | dose: 200.0 mg/kg/injection, schedule: Q04DX002 (ip), vehicle: gum acacia 107 % of control | dose: 400.0 mg/kg/injection, schedule: Q04DX002 (ip), vehicle: gum acacia 100 % of control

N=C(N)SCCCCCSC(=N)N
inactive: [16] 124 % of control | [17] 110 % of control | [18] 109 % of control | [19] 91 % of control

O=C(OCCCl)c1ccco1
inactive: [16] 102 % of control | [18] 102 % of control | dose: 400.0 mg/kg/injection, schedule: Q01DX001 (ip), vehicle: saline 107 % of control

c1ccc([P+](C[P+](c2ccccc2)(c2ccccc2)c2ccccc2)(c2ccccc2)c2ccccc2)cc1
inactive: dose: 0.19 mg/kg/injection, schedule: Q01DX009 (ip), vehicle: Klucel (hydroxypropylcellulose) (HPC) 98 % of control | dose: 0.78 mg/kg/injection, schedule: Q01DX009 (ip), vehicle: Klucel (hydroxypropylcellulose) (HPC) 102 % of control | dose: 1.56 mg/kg/injection, schedule: Q01DX009 (ip), vehicle: Klucel (hydroxypropylcellulose) (HPC) 97 % of control | dose: 1.56 mg/kg/injection, schedule: Q04DX003 (ip), vehicle: Klucel (hydroxypropylcellulose) (HPC) 93 % of control | dose: 3.12 mg/kg/injection, schedule: Q01DX009 (ip), vehicle: Klucel (hydroxypropylcellulose) (HPC) 97 % of control | dose: 3.12 mg/kg/injection, schedule: Q04DX003 (ip), vehicle: Klucel (hydroxypropylcellulose) (HPC) 92 % of control | dose: 6.25 mg/kg/injection, schedule: Q04DX003 (ip), vehicle: Klucel (hydroxypropylcellulose) (HPC) 90 % of control
active: dose: 0.39 mg/kg/injection, schedule: Q01DX009 (ip), vehicle: Klucel (hydroxypropylcellulose) (HPC) 175 % of control

OCc1ccc[n+](CCc2c[nH]c3ccccc23)c1
inactive: [10] 97 % of control | [11] 103 % of control

CC(C)CN(OC(=O)c1ccccc1)[N+](=O)[O-]
inactive: dose: 50.0 mg/kg/injection, schedule: Q04DX002 (ip), vehicle: saline 94 % of control | [17] 108 % of control | [19] 102 % of control
